# According to article PMC10743905, “Design, Synthesis, and In Vitro and In Vivo Bioactivity Studies of Hydrazide–Hydrazones of 2,4-Dihydroxybenzoic Acid” (International Journal of Molecular Sciences, 2023):
# Where two headings read alike, the source gives them in different places.
# Columns and labels:
# Experiment in all cases: Broth microdilution MIC/MBC
# Format in all cases: cell-based
# [1] = tested on: Bacillus cereus ATCC 10876; settings: for MBC: ATCC10876
# Outline: (§1)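 MICs were determined by broth microdilution using two-fold compound dilutions (final 1000-0.488 µg/ml) in Mueller-Hinton broth for bacteria or RPMI 1640 with MOPS for yeasts. Inocula were 0.5 McFarland suspensions in 0.85% NaCl, following EUCAST/CLSI guidelines; compounds were dissolved in DMSO.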
# [2] = tested on: Klebsiella pneumoniae ATCC 13883; settings: for MBC / MIC: ATCC13883
# Outline: as §1
# [3] = tested on: Escherichia coli ATCC 25922; settings: for MBC / MIC: ATCC25922
# Outline: as §1
# [4] = tested on: Enterococcus faecalis ATCC 29212; settings: for MBC: ATCC29212, read-out: MBC; for MIC: ATCC29212, read-out: MIC
# Outline: as §1
# [5] = tested on: Bordetella bronchiseptica ATCC 4617; settings: for MBC / MIC: ATCC4617
# Outline: as §1
Structure (SMILES),MBC/MIC [1],MBC [1],"MIC ([1]; ATCC10876, read-out: MIC)",MBC/MIC [2],MBC [2],MIC [2],MBC/MIC [3],MBC [3],MIC [3],MBC/MIC [4],MBC [4],MIC [4],MBC/MIC [5],MBC [5],MIC [5],MIC [1]
"CCCc1ccc(/C=N/NC(=O)c2ccc(O)cc2O)cc1 [Compound 13, 2,4-dihydroxy-N-[(4-propylphenyl)methylidene]benzohydrazide]",> 1,> 1000 µg/mL,1000 µg/mL,> 1,> 1000 µg/mL,1000 µg/mL,> 1,> 1000 µg/mL,1000 µg/mL,> 1,> 1000 µg/mL,1000 µg/mL,> 1,> 1000 µg/mL,1000 µg/mL,
"O=C(N/N=C/c1cc(I)cc(I)c1O)c1ccc(O)cc1O [Compound 18, 2,4-dihydroxy-N-[(2-hydroxy-3,5-diiodophenyl)methylidene]benzohydrazide]",4,15.6 µg/mL,3.91 µg/mL,> 2,> 1000 µg/mL,500 µg/mL,> 2,> 1000 µg/mL,500 µg/mL,4,15.6 µg/mL,3.91 µg/mL,> 2,> 1000 µg/mL,500 µg/mL,3.91 µg/mL
"O=C(N/N=C/c1ccccc1[N+](=O)[O-])c1ccc(O)cc1O [Compound 19, 2,4-dihydroxy-N-[(2-nitrophenyl)methylidene]benzohydrazide]",> 4,> 1000 µg/mL,250 µg/mL,> 1,> 1000 µg/mL,500 µg/mL,> 1,> 1000 µg/mL,1000 µg/mL,> 2,> 1000 µg/mL,500 µg/mL,> 1,> 1000 µg/mL,1000 µg/mL,
"O=C(N/N=C/c1cccc([N+](=O)[O-])c1)c1ccc(O)cc1O [Compound 20, 2,4-dihydroxy-N-[(3-nitrophenyl)methylidene]benzohydrazide]",,,> 1000 µg/mL,,,> 1000 µg/mL,,,> 1000 µg/mL,,,> 1000 µg/mL,,,> 1000 µg/mL,
"O=C(N/N=C/c1ccc([N+](=O)[O-])cc1)c1ccc(O)cc1O [Compound 21, 2,4-dihydroxy-N-[(4-nitrophenyl)methylidene]benzohydrazide]",> 2,> 1000 µg/mL,500 µg/mL,,,> 1000 µg/mL,,,> 1000 µg/mL,> 4,> 1000 µg/mL,500 µg/mL,,,> 1000 µg/mL,
"O=C(N/N=C/c1ccccc1Cl)c1ccc(O)cc1O [Compound 22, N-[(2-chlorophenyl)methylidene]-2,4-dihydroxybenzohydrazide]",,,> 1000 µg/mL,,,> 1000 µg/mL,,,> 1000 µg/mL,,,> 1000 µg/mL,,,> 1000 µg/mL,
"O=C(N/N=C/c1ccccc1Br)c1ccc(O)cc1O [Compound 23, N-[(2-bromophenyl)methylidene]-2,4-dihydroxybenzohydrazide]",,,> 1000 µg/mL,,,> 1000 µg/mL,,,> 1000 µg/mL,,,> 1000 µg/mL,,,> 1000 µg/mL,
"O=C(N/N=C/c1ccccc1F)c1ccc(O)cc1O [Compound 24, N-[(2-fluorophenyl)methylidene]-2,4-dihydroxybenzohydrazide]",> 1,> 1000 µg/mL,1000 µg/mL,,,> 1000 µg/mL,,,> 1000 µg/mL,> 1,> 1000 µg/mL,1000 µg/mL,,,> 1000 µg/mL,
